The source of these data is US12281122B1, “PI3K inhibitors” (Cogent Biosciences, Inc., priority 2023, dated 2025).

SMILES strings stand for the structures. Bounds are passed on as bounds.

Test [1] concerns T47D (PI3Kα-H1047R) cell line. Briefly: HTRF phospho-AKT(S473) cell assay in T47D cells. The class given is cell-based, human. Particulars: Homo sapiens, 2 hours compound incubation. The procedure, abridged: (§1)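 T47D (PI3Kα-H1047R; RPMI, 10% FBS, insulin) and SKBR3 (wild-type PI3Kα; McCoy's 5A, 10% FBS) cells treated 2 h at 37 °C with 12-point 1:3 dilutions, top 5 μM and 10 μM respectively, ≤0.5% DMSO. SKBR3 stimulated with 70 ng/ml PDGF-BB for the last 15 min; lysate pAKT(S473) by HTRF, IC50 from curves.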

Test [2] deals with SKBR3 (PI3Kα-Wild Type) cell line. Briefly: HTRF phospho-AKT(S473) cell assay in SKBR3 cells. It counts as cell-based, human. Particulars: Homo sapiens, SK-BR-3, 2 hours compound incubation, PDGF-BB stimulated. The procedure, abridged:
as §1
On the technique in general: Time-resolved FRET reads energy transfer from a long-lived donor to a nearby acceptor.

Setting [3] is: T47D (PI3Kα-H1047R) cells, HTRF phospho-AKT(S473).
Where [4] appears, read: SKBR3 (PI3Kα-Wild Type) cells, HTRF phospho-AKT(S473).
Setting [5] is: HTRF phospho-AKT(S473), T47D (PI3Kα-H1047R) cells.
Where [6] appears, read: HTRF phospho-AKT(S473), SKBR3 (PI3Kα-Wild Type) cells.

Consider `Cc1cc([C@@H](C)Nc2ccc(Cl)nc2C(=O)NS(C)(=O)=O)c2nc(N3CCc4c(cnn4-c4ccccc4)C3)n(C)c(=O)c2c1` [Compound 195, (R)-6-chloro-3-((1-(3,6-dimethyl-4-oxo-2-(1-phenyl-1,4,6,7-tetrahydro-5H-pyrazolo[4,3-c]pyridin-5-yl)-3,4-dihydroquinazolin-8-yl)ethyl)amino)-N-(methylsulfonyl) picolinamide], for which the IC50 was less than 250 nM in test [1] (setting [3]) and 1000 to 5000 nM in test [2] (setting [4]).
In the case of `Cc1cc([C@@H](C)Nc2ccc(Cl)nc2C(=O)NS(C)(=O)=O)c2nc(N3CCC4(CCc5cn(C)nc54)CC3)n(C)c(=O)c2c1` [Compound 673, (R)-6-chloro-3-((1-(3,6-dimethyl-2-(2-methyl-4,5-dihydro-2H-spiro [cyclopenta[c]pyrazole-6,4′-piperidin]-1′-yl)-4-oxo-3,4-dihydroquinazolin-8-yl)ethyl)amino)-N-(methylsulfonyl) picolinamide], the IC50 in test [1] (setting [5]) was 250 to 500 nM; in test [2] (setting [6]), no less than 5000 nM.
For `Cc1cc([C@@H](C)Nc2ccc(Cl)nc2C(=O)NS(C)(=O)=O)c2nc(-c3ccc4nn(C)cc4n3)n(C)c(=O)c2c1` [Compound 841, (R)-6-chloro-3-((1-(3,6-dimethyl-2-(2-methyl-2H-pyrazolo [4,3-b]pyridin-5-yl)-4-oxo-3,4-dihydroquinazolin-8-yl)ethyl)amino)-N-(methylsulfonyl) picolinamide], the IC50 in test [1] (T47D (PI3Kα-H1047R) cell line, phospho-AKT(S473) HTRF) was 250 to 500 nM; in test [2] (SKBR3 (PI3Kα-Wild Type) cell line, phospho-AKT(S473) HTRF) it was 1000 to 5000 nM.
In the case of `C[C@@H](Nc1ccc(Cl)nc1C(=O)NS(C)(=O)=O)c1cc(F)cc2c(=O)n(C)c(N3CC[C@H](Oc4cnn(C)c4)C3)nc12` [Compound 388, 6-chloro-3-(((R)-1-(6-fluoro-3-methyl-2-((S)-3-((1-methyl-1H-pyrazol-4-yl)oxy)pyrrolidin-1-yl)-4-oxo-3,4-dihydroquinazolin-8-yl)ethyl)amino)-N-(methylsulfonyl) picolinamide], the figures for the concentration for half-maximal inhibition (IC50) in test [1] (setting [3]) and in test [2] (setting [4]) were less than 250 nM and 1000 to 5000 nM, respectively.
Take `COc1ncc(F)c(N2CCN(c3nc4c([C@@H](C)Nc5ccc(Cl)nc5C(=O)NS(C)(=O)=O)cc(C)cc4c(=O)n3C)CC2)n1` [Compound 720, (R)-6-chloro-3-((1-(2-(4-(5-fluoro-2-methoxypyrimidin-4-yl)piperazin-1-yl)-3,6-dimethyl-4-oxo-3,4-dihydroquinazolin-8-yl)ethyl)amino)-N-(methylsulfonyl) picolinamide]: the IC50 was less than 250 nM in test [1] (setting [5]) and 1000 to 5000 nM in test [2] (setting [6]).
Consider `C[C@@H](Nc1ccc(Cl)nc1C(=O)NS(C)(=O)=O)c1cc(F)cc2c(=O)n(C)c(N3CCC(c4ccn(C)n4)CC3)nc12` [Compound 366, (R)-6-chloro-3-((1-(6-fluoro-3-methyl-2-(4-(1-methyl-1H-pyrazol-3-yl)piperidin-1-yl)-4-oxo-3,4-dihydroquinazolin-8-yl)ethyl)amino)-N-(methylsulfonyl) picolinamide], for which the values for the 50% inhibitory concentration (IC50) in test [1] (setting [3]) and in test [2] (setting [4]) were less than 250 nM and 1000 to 5000 nM, respectively.
In the case of `Cc1cc([C@@H](C)Nc2ccc(Cl)nc2C(=O)NS(C)(=O)=O)c2nc(N3C[C@@H]4[C@H](C3)[C@H]4c3nc(C)n(C(F)F)n3)n(C)c(=O)c2c1` [Compound 642, 6-chloro-3-(((R)-1-(2-((1R,5S,6R)-6-(1-(difluoromethyl)-5-methyl-1H-1,2,4-triazol-3-yl)-3-azabicyclo[3.1.0]hexan-3-yl)-3,6-dimethyl-4-oxo-3,4-dihydroquinazolin-8-yl)ethyl)amino)-N-(methylsulfonyl) picolinamide], the IC50 is 250 to 500 nM in test [1] (setting [5]) and no less than 5000 nM in test [2] (setting [6]).
As to `Cc1cc([C@@H](C)Nc2ccc(Cl)nc2C(=O)NS(C)(=O)=O)c2nc(-c3ccc4nn(C)cc4c3C)n(C)c(=O)c2c1` [Compound 798, (R)-6-chloro-3-((1-(2-(2,4-dimethyl-2H-indazol-5-yl)-3,6-dimethyl-4-oxo-3,4-dihydroquinazolin-8-yl)ethyl)amino)-N-(methylsulfonyl) picolinamide], the concentration for half-maximal inhibition (IC50) in test [1] (setting [5]) is less than 250 nM; in test [2] (setting [6]) it was 1000 to 5000 nM.
Take `Cc1cc([C@@H](C)Nc2ccc(Cl)nc2C(=O)NS(C)(=O)=O)c2nc(N3C[C@@H]4[C@H](C3)[C@H]4c3nn(C)cc3Cl)n(C)c(=O)c2c1` [Compound 401, 6-chloro-3-(((R)-1-(2-((1R,5S,6R)-6-(4-chloro-1-methyl-1H-pyrazol-3-yl)-3-azabicyclo[3.1.0]hexan-3-yl)-3,6-dimethyl-4-oxo-3,4-dihydroquinazolin-8-yl)ethyl)amino)-N-(methylsulfonyl) picolinamide]: the IC50 in test [1] (setting [3]) was 250 to 500 nM; in test [2] (setting [4]) it was no less than 5000 nM.
Consider `Cc1cc([C@@H](C)Nc2ccc(Cl)nc2C(=O)NS(C)(=O)=O)c2nc(N3[C@@H]4CC[C@H]3C[C@@H](c3cnn(C)c3)C4)n(C)c(=O)c2c1` (racemic) [Compound 381, 6-chloro-3-(((R)-1-(3,6-dimethyl-2-((1RS,3RS,5SR)-3-(1-methyl-1H-pyrazol-4-yl)-8-azabicyclo[3.2.1]octan-8-yl)-4-oxo-3,4-dihydroquinazolin-8-yl)ethyl)amino)-N-(methylsulfonyl) picolinamide], for which the IC50 in test [1] (setting [3]) was less than 250 nM; in test [2] (setting [4]), 1000 to 5000 nM.
For the molecule `Cc1cc([C@@H](C)Nc2ccc(Cl)nc2C(=O)NS(C)(=O)=O)c2nc(N3CCC(Oc4ccn(C)n4)CC3)n(C)c(=O)c2c1` [Compound 265, (R)-6-chloro-3-((1-(3,6-dimethyl-2-(4-((1-methyl-1H-pyrazol-3-yl)oxy)piperidin-1-yl)-4-oxo-3,4-dihydroquinazolin-8-yl)ethyl)amino)-N-(methylsulfonyl) picolinamide], the half-inhibitory concentration (IC50) in test [1] (setting [3]) is less than 250 nM; in test [2] (setting [4]) it was 1000 to 5000 nM.
On to `[2H]C([2H])([2H])n1nccc1C1CCN(c2nc3c([C@@H](C)Nc4ccc(Cl)nc4C(=O)NS(C)(=O)=O)cc(C)cc3c(=O)n2C)CC1` [Compound 747, (R)-6-chloro-3-((1-(3,6-dimethyl-2-(4-(1-(methyl-d3)-1H-pyrazol-5-yl)piperidin-1-yl)-4-oxo-3,4-dihydroquinazolin-8-yl)ethyl)amino)-N-(methylsulfonyl) picolinamide], for which the IC50 in test [1] (setting [5]) is less than 250 nM; in test [2] (setting [6]), 1000 to 5000 nM.
With `Cc1cc([C@@H](C)Nc2ccc(Cl)nc2C(=O)NS(C)(=O)=O)c2nc(N3CCC(n4cc(C(F)(F)F)cn4)CC3)n(C)c(=O)c2c1` [Compound 681, (R)-6-chloro-3-((1-(3,6-dimethyl-4-oxo-2-(4-(4-(trifluoromethyl)-1H-pyrazol-1-yl)piperidin-1-yl)-3,4-dihydroquinazolin-8-yl)ethyl)amino)-N-(methylsulfonyl) picolinamide], the IC50 in test [1] (setting [5]) is 250 to 500 nM; in test [2] (setting [6]) it was no less than 5000 nM.
Consider `Cc1cc([C@@H](C)Nc2ccc(Cl)nc2C(=O)NS(C)(=O)=O)c2nc(N3C[C@@H]4[C@H](C3)[C@H]4c3cc(C)n(C)n3)n(C)c(=O)c2c1` [Compound 435, 6-chloro-3-(((R)-1-(2-((1R,5S,6R)-6-(1,5-dimethyl-1H-pyrazol-3-yl)-3-azabicyclo[3.1.0]hexan-3-yl)-3,6-dimethyl-4-oxo-3,4-dihydroquinazolin-8-yl)ethyl)amino)-N-(methylsulfonyl) picolinamide], for which the values for the IC50 in test [1] (setting [3]) and in test [2] (setting [4]) were less than 250 nM and 1000 to 5000 nM, respectively.
Take `[2H]C([2H])([2H])n1nc([C@H]2[C@@H]3CN(c4nc5c([C@@H](C)Nc6ccc(Cl)nc6C(=O)NS(C)(=O)=O)cc(C)cc5c(=O)n4C)C[C@@H]32)c(Cl)c1C` [Compound 661, 6-chloro-3-(((R)-1-(2-((1R,5S,6R)-6-(4-chloro-5-methyl-1-(methyl-d3)-1H-pyrazol-3-yl)-3-azabicyclo[3.1.0]hexan-3-yl)-3,6-dimethyl-4-oxo-3,4-dihydroquinazolin-8-yl)ethyl)amino)-N-(methylsulfonyl) picolinamide]: the IC50 is 250 to 500 nM in test [1] (setting [5]) and no less than 5000 nM in test [2] (setting [6]).
Turning to `Cc1cc([C@@H](C)Nc2ccc(Cl)nc2C(=O)NS(C)(=O)=O)c2nc(N3CCN(c4nn(C)cc4F)CC3)n(C)c(=O)c2c1` [Compound 450, (R)-6-chloro-3-((1-(2-(4-(4-fluoro-1-methyl-1H-pyrazol-3-yl)piperazin-1-yl)-3,6-dimethyl-4-oxo-3,4-dihydroquinazolin-8-yl)ethyl)amino)-N-(methylsulfonyl) picolinamide], the IC50 in test [1] (setting [5]) is less than 250 nM; in test [2] (setting [6]), no less than 5000 nM.
Turning to `Cc1cc([C@@H](C)Nc2ccc(Cl)nc2C(=O)NS(C)(=O)=O)c2nc(N3CCC(c4nn(C)cc4C#N)CC3)n(C)c(=O)c2c1` [Compound 697, (R)-6-chloro-3-((1-(2-(4-(4-cyano-1-methyl-1H-pyrazol-3-yl)piperidin-1-yl)-3,6-dimethyl-4-oxo-3,4-dihydroquinazolin-8-yl)ethyl)amino)-N-(methylsulfonyl) picolinamide], the IC50 in test [1] (setting [5]) is 250 to 500 nM; in test [2] (setting [6]), 1000 to 5000 nM.
Take `Cc1cc([C@@H](C)Nc2ccc(Cl)nc2C(=O)NS(C)(=O)=O)c2nc(N3C[C@H]4C[C@@H]3CN4c3cnc(C)cn3)n(C)c(=O)c2c1` [Compound 577, 6-chloro-3-(((R)-1-(3,6-dimethyl-2-((1R,4R)-5-(5-methylpyrazin-2-yl)-2,5-diazabicyclo[2.2.1]heptan-2-yl)-4-oxo-3,4-dihydroquinazolin-8-yl)ethyl)amino)-N-(methylsulfonyl) picolinamide]: the results for the half-inhibitory concentration (IC50) in test [1] (setting [5]) and in test [2] (setting [6]) were 250 to 500 nM and no less than 5000 nM, respectively.

A word on the IC50: it is the concentration that gives 50% inhibition.
